Data taken from PubChem BioAssay (NCI).
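Tested at 5 concentrations; 48 h exposure; 96-well plates; endpoints linearly interpolated, else capped at highest concentration. TGI is the concentration that stops growth completely.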

Assays:
Assay in all cases: NCI tumour cell line growth inhibition, 48 h
[1] = tested on: 786-0 renal
[2] = tested on: A498 renal
[3] = tested on: A549 NSCLC
[4] = tested on: ACHN renal
[5] = tested on: BT-549 breast
[6] = tested on: CAKI-1 renal
[7] = tested on: CCRF-CEM leukemia
[8] = tested on: COLO 205 colon
[9] = tested on: DU-145 prostate
[10] = tested on: EKVX NSCLC
[11] = tested on: HCC-2998 colon
[12] = tested on: HCT-116 colon
[13] = tested on: HCT-15 colon
[14] = tested on: HL-60(TB) leukemia
[15] = tested on: HOP-62 NSCLC
[16] = tested on: HOP-92 NSCLC
[17] = tested on: HS 578T breast
[18] = tested on: HT29 colon
[19] = tested on: IGROV1 ovarian
[20] = tested on: K-562 leukemia
[21] = tested on: KM12 colon
[22] = tested on: LOX IMVI melanoma
[23] = tested on: M14 melanoma
[24] = tested on: MALME-3M melanoma
[25] = tested on: MCF7 breast
[26] = tested on: MDA-MB-231 breast
[27] = tested on: MDA-MB-435
[28] = tested on: MDA-N
[29] = tested on: MOLT-4 leukemia
[30] = tested on: NCI-H226 lung
[31] = tested on: NCI-H23 lung
[32] = tested on: NCI-H460 lung
[33] = tested on: NCI-H522 lung
[34] = tested on: NCI/ADR-RES ovarian
[35] = tested on: OVCAR-3 ovarian
[36] = tested on: OVCAR-4 ovarian
[37] = tested on: OVCAR-5 ovarian
[38] = tested on: OVCAR-8 ovarian
[39] = tested on: PC-3 prostate
[40] = tested on: RPMI-8226 leukemia
[41] = tested on: RXF 393 renal
[42] = tested on: SF-268 CNS
[43] = tested on: SF-295 CNS
[44] = tested on: SF-539 CNS
[45] = tested on: SK-MEL-2 melanoma
[46] = tested on: SK-MEL-28 melanoma
[47] = tested on: SK-MEL-5 melanoma
[48] = tested on: SK-OV-3 ovarian
[49] = tested on: SN12C renal
[50] = tested on: SNB-19 CNS
[51] = tested on: SNB-75 CNS
[52] = tested on: SR leukemia
[53] = tested on: SW-620 colon
[54] = tested on: T-47D breast
[55] = tested on: TK-10 renal
[56] = tested on: U251 CNS
[57] = tested on: UACC-257 melanoma
[58] = tested on: UACC-62 melanoma
[59] = tested on: UO-31 renal

Structure (SMILES): c1cc(-c2ccsc2-c2ccsc2)cs1
- TGI [1]: > 100 µM
- TGI [2]: > 100 µM
- TGI [3]: > 100 µM
- TGI [4]: > 100 µM
- TGI [5]: > 100 µM
- TGI [6]: > 100 µM
- TGI [7]: > 100 µM
- TGI [8]: > 100 µM
- TGI [9]: > 100 µM
- TGI [10]: > 100 µM
- TGI [11]: > 100 µM
- TGI [12]: > 100 µM
- TGI [13]: > 100 µM
- TGI [14]: > 100 µM
- TGI [15]: > 100 µM
- TGI [16]: > 100 µM
- TGI [17]: > 100 µM
- TGI [18]: > 100 µM
- TGI [19]: > 100 µM
- TGI [20]: > 100 µM
- TGI [21]: 99.7 µM
- TGI [22]: > 100 µM
- TGI [23]: > 100 µM
- TGI [24]: > 100 µM
- TGI [25]: > 100 µM
- TGI [26]: > 100 µM
- TGI [27]: > 82.9 µM
- TGI [28]: > 72.5 µM
- TGI [29]: > 89 µM
- TGI [30]: > 71.7 µM
- TGI [31]: > 100 µM
- TGI [32]: > 100 µM
- TGI [33]: > 100 µM
- TGI [34]: > 100 µM
- TGI [35]: > 100 µM
- TGI [36]: > 100 µM
- TGI [37]: > 100 µM
- TGI [38]: > 100 µM
- TGI [39]: > 100 µM
- TGI [40]: > 100 µM
- TGI [41]: > 85.5 µM
- TGI [42]: > 100 µM
- TGI [43]: > 100 µM
- TGI [44]: > 100 µM
- TGI [45]: > 59.1 µM
- TGI [46]: > 100 µM
- TGI [47]: > 100 µM
- TGI [48]: > 100 µM
- TGI [49]: > 100 µM
- TGI [50]: > 100 µM
- TGI [51]: > 100 µM
- TGI [52]: > 74.9 µM
- TGI [53]: > 100 µM
- TGI [54]: > 100 µM
- TGI [55]: > 100 µM
- TGI [56]: > 100 µM
- TGI [57]: > 100 µM
- TGI [58]: > 100 µM
- TGI [59]: > 100 µM

Structure (SMILES): COc1ccc(/C=C2/N=C(N/N=C\C(O)C(O)C(O)C(O)CO)NC2=O)cc1 (stereo not drawn)
- TGI [1]: > 100 µM
- TGI [2]: > 100 µM
- TGI [3]: > 100 µM
- TGI [4]: > 100 µM
- TGI [5]: > 100 µM
- TGI [6]: > 100 µM
- TGI [7]: > 100 µM
- TGI [8]: > 100 µM
- TGI [9]: > 100 µM
- TGI [10]: > 100 µM
- TGI [11]: > 100 µM
- TGI [12]: > 100 µM
- TGI [13]: > 100 µM
- TGI [14]: > 100 µM
- TGI [15]: > 100 µM
- TGI [16]: > 100 µM
- TGI [17]: > 100 µM
- TGI [18]: > 100 µM
- TGI [19]: > 100 µM
- TGI [20]: > 100 µM
- TGI [21]: > 100 µM
- TGI [22]: > 100 µM
- TGI [23]: > 100 µM
- TGI [24]: > 100 µM
- TGI [25]: > 100 µM
- TGI [26]: > 100 µM
- TGI [27]: > 100 µM
- TGI [28]: > 100 µM
- TGI [29]: > 100 µM
- TGI [30]: > 100 µM
- TGI [31]: > 100 µM
- TGI [32]: > 100 µM
- TGI [33]: > 100 µM
- TGI [34]: > 100 µM
- TGI [35]: > 100 µM
- TGI [36]: > 100 µM
- TGI [37]: > 100 µM
- TGI [38]: > 100 µM
- TGI [39]: > 100 µM
- TGI [40]: > 100 µM
- TGI [41]: > 100 µM
- TGI [42]: > 100 µM
- TGI [43]: > 100 µM
- TGI [44]: > 100 µM
- TGI [45]: > 100 µM
- TGI [46]: > 100 µM
- TGI [47]: > 100 µM
- TGI [48]: > 100 µM
- TGI [49]: > 100 µM
- TGI [50]: > 100 µM
- TGI [51]: > 100 µM
- TGI [52]: > 100 µM
- TGI [53]: > 100 µM
- TGI [54]: > 100 µM
- TGI [55]: > 100 µM
- TGI [56]: > 100 µM
- TGI [57]: > 100 µM
- TGI [59]: > 100 µM

Structure (SMILES): COC(=O)CC1C(C)(C)C(=O)C2CC3=C4CC(=O)OC(c5ccoc5)C4(C)CCC3C1(C)C2=O (stereo not drawn)
- TGI [1]: > 100 µM
- TGI [2]: > 100 µM
- TGI [3]: > 100 µM
- TGI [4]: > 100 µM
- TGI [5]: > 100 µM
- TGI [6]: > 100 µM
- TGI [7]: > 100 µM
- TGI [8]: > 100 µM
- TGI [9]: > 100 µM
- TGI [10]: > 100 µM
- TGI [11]: > 100 µM
- TGI [12]: > 100 µM
- TGI [13]: > 100 µM
- TGI [14]: > 100 µM
- TGI [15]: > 100 µM
- TGI [16]: > 100 µM
- TGI [17]: > 100 µM
- TGI [18]: > 100 µM
- TGI [19]: > 100 µM
- TGI [20]: > 100 µM
- TGI [21]: > 100 µM
- TGI [22]: > 100 µM
- TGI [23]: > 100 µM
- TGI [24]: > 100 µM
- TGI [25]: > 100 µM
- TGI [26]: > 100 µM
- TGI [27]: > 100 µM
- TGI [28]: > 100 µM
- TGI [29]: > 100 µM
- TGI [30]: > 100 µM
- TGI [31]: > 100 µM
- TGI [32]: > 100 µM
- TGI [33]: > 100 µM
- TGI [34]: > 100 µM
- TGI [35]: > 100 µM
- TGI [36]: > 100 µM
- TGI [37]: > 100 µM
- TGI [38]: > 100 µM
- TGI [39]: > 100 µM
- TGI [40]: > 100 µM
- TGI [41]: > 100 µM
- TGI [42]: > 100 µM
- TGI [43]: > 100 µM
- TGI [44]: > 100 µM
- TGI [45]: > 100 µM
- TGI [46]: > 100 µM
- TGI [47]: > 100 µM
- TGI [48]: > 100 µM
- TGI [49]: > 100 µM
- TGI [50]: > 100 µM
- TGI [51]: > 100 µM
- TGI [52]: > 100 µM
- TGI [53]: > 100 µM
- TGI [54]: > 100 µM
- TGI [55]: > 100 µM
- TGI [56]: > 100 µM
- TGI [57]: > 100 µM
- TGI [58]: > 100 µM

Structure (SMILES): O=c1c2cccnc2[nH]c2ccc3[nH]ncc3c12
- TGI [1]: > 10 µM
- TGI [2]: > 10 µM
- TGI [3]: > 10 µM
- TGI [4]: > 10 µM
- TGI [5]: > 10 µM
- TGI [6]: > 10 µM
- TGI [7]: > 10 µM
- TGI [8]: > 10 µM
- TGI [9]: > 10 µM
- TGI [10]: > 10 µM
- TGI [11]: > 10 µM
- TGI [12]: > 10 µM
- TGI [13]: > 10 µM
- TGI [14]: > 10 µM
- TGI [15]: > 10 µM
- TGI [16]: > 10 µM
- TGI [17]: > 10 µM
- TGI [18]: > 10 µM
- TGI [19]: > 10 µM
- TGI [20]: > 10 µM
- TGI [21]: > 10 µM
- TGI [22]: > 10 µM
- TGI [23]: > 10 µM
- TGI [24]: > 10 µM
- TGI [25]: > 10 µM
- TGI [26]: > 10 µM
- TGI [27]: > 10 µM
- TGI [28]: > 10 µM
- TGI [29]: > 10 µM
- TGI [30]: > 10 µM
- TGI [31]: > 10 µM
- TGI [32]: > 10 µM
- TGI [33]: > 10 µM
- TGI [34]: > 10 µM
- TGI [35]: > 10 µM
- TGI [36]: > 10 µM
- TGI [37]: > 10 µM
- TGI [38]: > 10 µM
- TGI [39]: > 10 µM
- TGI [40]: > 10 µM
- TGI [41]: > 10 µM
- TGI [42]: > 10 µM
- TGI [43]: > 10 µM
- TGI [44]: > 10 µM
- TGI [45]: > 10 µM
- TGI [46]: > 10 µM
- TGI [47]: > 10 µM
- TGI [48]: > 10 µM
- TGI [49]: > 10 µM
- TGI [50]: > 10 µM
- TGI [51]: > 10 µM
- TGI [52]: > 10 µM
- TGI [53]: > 10 µM
- TGI [54]: > 10 µM
- TGI [55]: > 10 µM
- TGI [56]: > 10 µM
- TGI [57]: > 10 µM
- TGI [58]: > 10 µM
